The record followed here is patent US12422660B2, “Microscope for imaging samples within wells of multi-well plates hold by stage and beam homogenizer for homogenizing beam” (QUIVER HOLDINGS INC., priority 2020, dated 2025).

In test [1] the test system is iPSC-derived excitatory cortical neurons (NGN2) with LOF mutation (knockout/KO). Briefly: Optopatch multi-dimensional analysis of disease phenotype reversal and side effects. The test is classed as cell-based, human. Conditions: for cell behavior projected onto phenotype/side effect space: KO cells, 8 concentrations from 0.28 to 600 μM, increasing concentration; for reversal of functional phenotype (WT vs KO), radar plot: KO neurons, 30 days in culture. From the text: In compound screening, multidimensional data may be reduced to a few parameters that can be used to rank and select compounds to advance. In disease modeling, for example, one uses hiPSC-derived neurons from patients and healthy controls, and screens for compounds that induce the disease cells to behave like healthy cells. The dimensionality reduction is described in FIG. 27-FIG. 29.
FIG. 27-FIG. 29 show multi-dimensional analysis with iPSC-derived excitatory cortical neurons (NGN2), 30 days in culture.
FIG. 27 is Radar plot showing a select subset of parameters normalized to values for wildtype (WT) neurons. […] The difference between WT and KO traces is the functional phenotype.
FIG. 28 is a diagram illustrating phenotype reversal and “side effects.” In the ˜300-dimensional space of recorded parameters, only two of which are shown, WT wells are clustered and KO wells are clustered. The vector between these populations represents the phenotype (red). Drug effects (blue) are deconstructed into components along (phenotype reversal) and orthogonal to (side effects) the phenotype vector. An ideal drug would undo the effects of the mutation and move the well from the KO cloud to the WT cloud.
FIG. 29 is a plot showing many wells projected onto the phenotype/side effect space. WT and KO wells are well separated along the phenotype direction. Application of the two compounds (8 concentrations from 0.28 to 600 μM) from FIG. 27 have increasing effects on KO cell behavior as the concentration increases. […] The connected drug points are in order of increasing concentration, and the two lines are experimental replicates on two consecutive weeks of experiment.

Test [2] has as its system E18 rat hippocampal neurons. Briefly: Optopatch pharmacology and high-throughput validation on 96-well Firefly. The test is classed as cell-based. Conditions: for firing rate: 1 μM, 96-well plate, alternating columns vs vehicle; for drug-induced change in neuronal spiking behavior: neurons cultured 14 days, vehicle normalized to 1. The procedure: Concentration response curves are readily measured with the Optopatch platform (FIG. 31). All compounds show large effect sizes and good repeatability on two independent plates. Each symbol represents>100 cells in one well. All the data shown were measured in a single day.
The system is also approaching readiness for high-throughput drug screening. To test system uniformity and repeatability, ML-213 is added to alternating columns in a 96-well plate (FIG. 32-FIG. 37). The change in spike rate during the ramp is readily visible in each well and is uniform across the plate (FIG. 34-35). Using one parameter, number of spikes during the ramp, the Z′ of 0.31 indicates a failed call in 1 of 73,000 wells, sufficient for screening tens of thousands of compounds for phenotypic screens in neurons. There was a small drift in time as wells were read out serially at room temperature (FIG. 36). Recent improvements in automation control software have reduced the scan time per FOV from 30 seconds to 10 seconds, which will reduce scan time artifacts. Furthermore, the microscope will have a 5× increased imaging area, reducing the number of FOVs per well to 1 and further increasing screening speed.
FIGS. 30 & 31 show pharmacology e.g., with E18 rat hippocampal neurons cultured 14 days.
FIG. 30 is radar plots showing the drug-induced change in neuronal spiking behavior along many dimensions, tabulated at right. For each parameter, the vehicle is normalized to 1 (green); drug effects in orange.
FIG. 32-FIG. 37 show high-throughput validation for screening with E18 rat hippocampal neurons cultured for 14 days.
The blue light stimulus is shown below.

Test [3] deals with hiPSC-derived motor neurons. Briefly: Optopatch intrinsic excitability and pharmacological response, before and after compound addition. The test is classed as cell-based, human. Conditions: 1 μM, before vs after addition, blue light stimulus. The text has this: Firefly image with overlay (colored regions) of hiPSC-derived motor neurons are identified by automated analysis.
Example voltage recordings from selected cells, and the blue stimulus used to evoke firing: steps, pulse trains, and ramps are shown. […]
FIG. 21 is a raster plot where each point is an identified action potential and each row is a neuron from a single FOV.
Analysis overview: FIGS. 19-26 show the automated analysis workflow for measurements of intrinsic excitability and pharmacological response in hiPSC-derived motor neurons. Neurons are interrogated with a stimulus protocol (blue) designed to probe a broad range of spiking behaviors. All pixels capturing fluorescence from one neuron co-vary in time following that cell's unique firing pattern (FIG. 20). The temporal covariance is used to generate a weight mask for each cell (colored regions in FIG. 19); masked pixels are averaged for each frame in the movie to calculate the voltage traces. Each FOV was recorded twice, before and after addition of potassium channel opener ML213. […] From the fluorescence-time traces, each action potential in the dataset is identified (FIG. 21), and firing rate (FIG. 22), spike shape parameters (FIG. 23) and relative timings (FIG. 24 & FIG. 25) are measured as a function of stimulus. […]

“Also recorded” adds a separate entry of the source.

As for `Nc1ccncc1` [4-AP], in test [1], the “cell behavior projected onto phenotype/side effect space” value was “moves cell behavior toward and beyond WT behavior”; the “reversal of functional phenotype (WT vs KO), radar plot” value was “substantially reversed the phenotype”.

`Cc1cc(C)c(NC(=O)C2CC3CCC2C3)c(C)c1` (stereo not drawn) [ML213]: in test [2], the firing rate result is on record as “dramatically reduces firing rate in all wells tested” and the “drug-induced change in neuronal spiking behavior” value is “drive behavior in opposite directions”. Besides, the firing rate entry in test [2] (listed as ML-213) is given as “reduces firing”. Moreover, the “neuronal excitability / firing” value in test [3] was “suppresses firing; also recorded: clear reduction in neuronal excitability”.

As to `O=C1c2ccccc2C(Cc2ccncc2)(Cc2ccncc2)c2ccccc21` [XE-991], the “drug-induced change in neuronal spiking behavior” value in test [2] is “drive behavior in opposite directions”.

As to `Nc1nnc(-c2cccc(Cl)c2Cl)c(N)n1` [lamotrigine], in test [1], the “cell behavior projected onto phenotype/side effect space” value was “moves behavior away from both WT and KO”; the “reversal of functional phenotype (WT vs KO), radar plot” value is given as “perturbed behavior but did not reverse the phenotype”.
